Measured values published in article PMC3566764, “Thioester derivatives of the natural product psammaplin A as potent histone deacetylase inhibitors” (Beilstein Journal of Organic Chemistry, 2013).
Like-named read-outs stand apart in the source and are kept apart here. One block for each compound: values may come before it.

Experiments:
[1] = test system: A549 (human lung carcinoma); test: Cytotoxicity against A549 cell line; assay type: cell-based; details: for IC50: Homo sapiens, A549 cells
Description: (§1) Thioesters 7–9 were assayed against A549, MCF7 and WI38 cell lines, in addition to recombinant human rHDAC1 (class I) and recombinant human HDAC6 (rHDAC6, class II) as previously reported. Psammaplin A (3), prereduced psammaplin A thiol (4), and SAHA (1) were included as control compounds. IC50^6/1 is defined by the ratio IC50^HDAC6/IC50^HDAC1 and was used as an indicator of isoform selectivity in vitro.

[2] = biological target: T1, rHDAC1 (Homo sapiens, UniProt Q13547); test: rHDAC1 inhibition as a function of initial incubation time; assay type: biochemical; details: thioester at IC50 concentration, incubation 1–60 minutes
T1 construct: purchased BPS Bioscience (US)
Description: An alternative hypothesis for the high potency of the thioester inhibitors is that the HDAC enzyme cleaves the acetyl group directly, utilizing its intrinsic deacetylase activity. Inhibition of rHDAC1 was measured (at the IC50 concentration of thioester) as a function of the initial incubation time (1–60 minutes) of rHDAC1 with thioesters 7 and 9 (Figure 2). […] Finally, we assessed whether the use of thioester inhibitors could influence the assay readout, when using our coupled HDAC assay. Trypsin-dependant generation of the fluorescence intensity (2nd step of our coupled assay) was discounted as a source of false-positive activity, since trypsin was used in a large excess (430 μM) compared to the thioesters (low micromolar to nanomolar). Direct compound inhibition of trypsin would therefore not be significant in the overall readout on stoichiometry grounds.
Figure 2 rHDAC1 was incubated with a predetermined IC50 concentration of 7 (left) and 9 (right) for 1–60 minutes, and the remaining rHDAC1 activity (Y-axis, %) was recorded and plotted as a function of the incubation time (X-axis, minutes).
A serial dilution of test compounds was pre-incubated with 7.4 nM rHDAC1 or 2.8 nM rHDAC6, at 21 ± 1 °C in the dark for different periods of time as indicated. […] The fluorescence of AMC served as an indirect measure of HDAC enzyme activity. […]

[3] = biological target: T2, recombinant human HDAC6 (rHDAC6) (Homo sapiens, UniProt Q9UBN7); test: rHDAC6 inhibition, coupled Boc-Lys(Ac)-AMC/trypsin fluorescence assay; assay type: biochemical; details: purified recombinant human HDAC6
T2 construct: purchased BPS Bioscience (US)
T2 sequence (Q9UBN7 1-1215): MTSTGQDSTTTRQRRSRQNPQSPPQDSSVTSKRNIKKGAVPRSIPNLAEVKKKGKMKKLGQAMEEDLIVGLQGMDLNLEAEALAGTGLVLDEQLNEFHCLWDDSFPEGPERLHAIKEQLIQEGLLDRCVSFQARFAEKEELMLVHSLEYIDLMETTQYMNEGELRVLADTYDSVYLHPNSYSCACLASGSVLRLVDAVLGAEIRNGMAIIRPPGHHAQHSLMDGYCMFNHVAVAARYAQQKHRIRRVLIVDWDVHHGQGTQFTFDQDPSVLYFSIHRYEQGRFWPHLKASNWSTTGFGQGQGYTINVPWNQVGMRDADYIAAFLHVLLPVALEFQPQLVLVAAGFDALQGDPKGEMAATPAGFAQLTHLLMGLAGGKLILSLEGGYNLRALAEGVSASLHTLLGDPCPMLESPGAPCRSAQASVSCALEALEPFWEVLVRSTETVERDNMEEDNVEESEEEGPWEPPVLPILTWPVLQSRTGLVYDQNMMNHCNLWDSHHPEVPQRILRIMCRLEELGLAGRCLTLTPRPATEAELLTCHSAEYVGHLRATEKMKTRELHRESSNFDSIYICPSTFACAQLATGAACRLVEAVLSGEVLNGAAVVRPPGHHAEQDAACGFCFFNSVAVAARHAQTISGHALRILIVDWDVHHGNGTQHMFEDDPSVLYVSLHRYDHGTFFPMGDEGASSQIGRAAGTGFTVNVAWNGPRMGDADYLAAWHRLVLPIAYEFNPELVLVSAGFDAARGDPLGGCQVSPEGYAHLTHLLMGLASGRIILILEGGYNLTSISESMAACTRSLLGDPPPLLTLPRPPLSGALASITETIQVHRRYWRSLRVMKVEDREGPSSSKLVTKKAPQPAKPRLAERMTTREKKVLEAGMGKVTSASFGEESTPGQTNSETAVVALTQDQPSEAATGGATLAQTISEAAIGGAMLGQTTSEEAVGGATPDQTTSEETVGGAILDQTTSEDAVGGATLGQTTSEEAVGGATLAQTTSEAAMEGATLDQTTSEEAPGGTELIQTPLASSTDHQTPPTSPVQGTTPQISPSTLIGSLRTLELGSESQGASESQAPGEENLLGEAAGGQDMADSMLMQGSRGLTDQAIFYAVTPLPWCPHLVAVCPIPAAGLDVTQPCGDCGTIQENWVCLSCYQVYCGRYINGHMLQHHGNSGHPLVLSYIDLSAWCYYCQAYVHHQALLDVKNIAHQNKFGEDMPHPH
Description: (§2) HDAC assays were performed as previously reported. The recombinant human histone deacetylases rHDAC1 and rHDAC6 were obtained from BPS Bioscience (US).
(§3) All reactions were performed in black half area 96-well microplates (Greiner bio-one, Germany) according to the general procedure described by Wegener et al. with some minor modifications. […] The buffer components were purchased from Merck (Germany), Roth (Germany) and Sigma-Aldrich.
(§4) The enzyme reaction was initiated by the addition of Boc-Lys(Ac)-AMC substrate. The reaction mixture was incubated at 30 °C in the dark and stopped after 60 min by the addition of a mixture of 70 µM trypsin and 200 nM SAHA. The fluorescence of AMC served as an indirect measure of HDAC enzyme activity. The kinetics of AMC release was measured on a PolarStar fluorescence plate reader (BMG) with an excitation wavelength of 340 nm and an emission wavelength of 460 nm. Complete cleavage of deacetylated Boc-Lys-AMC by trypsin was achieved after about 10–15 min. The fluorescence intensity of the plateau was averaged over at least 5 min and normalized with respect to the percentage of enzyme activity. Finally, the normalized fluorescence intensities were plotted versus the concentration of test compounds and fitted to a four-parameter logistic model to calculate the IC50 values.

[4] = biological target: T1, rHDAC1; test: rHDAC1 inhibition, coupled Boc-Lys(Ac)-AMC/trypsin fluorescence assay; assay type: biochemical; details: for IC50^6/1 (ratio IC50 HDAC6/IC50 HDAC1): isoform selectivity in vitro; for IC50: purified recombinant human HDAC1
Description: as §2, §3, §4

[5] = test system: MCF7 (human breast carcinoma); test: Cytotoxicity against MCF7 cell line; assay type: cell-based; details: MCF7 cells
Description: as §1

[6] = test system: WI38 (normal human lung fibroblast); test: Cytotoxicity against WI38 cell line; assay type: cell-based; details: for IC50: Homo sapiens, WI-38, WI38 cells
Description: as §1

[7] = biological target: T2, recombinant human HDAC6 (rHDAC6); design: method as in PMID 22280363; details: in brackets, cited from earlier work
[8] = test system: MCF7 (human breast carcinoma); design: method as in PMID 22280363; details: in brackets, cited from earlier work
[9] = test system: A549 (human lung carcinoma); design: method as in PMID 22280363; details: in brackets, cited from earlier work
[10] = biological target: T1, rHDAC1; design: method as in PMID 22280363; details: in brackets, cited from earlier work
[11] = test system: WI38 (normal human lung fibroblast); design: method as in PMID 22280363; details: in brackets, cited from earlier work
[12] = first value: corresponding disulfide
[13] = second value: corresponding thiol

T1 sequence (Q13547 whole entry): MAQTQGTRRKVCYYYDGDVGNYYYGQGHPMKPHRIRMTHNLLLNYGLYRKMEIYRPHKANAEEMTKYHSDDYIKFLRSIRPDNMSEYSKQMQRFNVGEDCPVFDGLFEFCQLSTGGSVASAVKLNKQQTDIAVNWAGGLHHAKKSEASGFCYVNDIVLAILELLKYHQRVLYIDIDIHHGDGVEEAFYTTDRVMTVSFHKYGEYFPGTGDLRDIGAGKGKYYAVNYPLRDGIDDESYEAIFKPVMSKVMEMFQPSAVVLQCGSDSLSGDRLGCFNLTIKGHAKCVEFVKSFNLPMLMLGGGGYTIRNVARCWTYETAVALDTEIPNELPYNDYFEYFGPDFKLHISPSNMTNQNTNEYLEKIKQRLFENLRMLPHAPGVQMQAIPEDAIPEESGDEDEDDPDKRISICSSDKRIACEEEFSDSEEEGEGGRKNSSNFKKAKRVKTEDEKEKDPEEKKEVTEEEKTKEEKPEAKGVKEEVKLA

variation of rHDAC1 inhibition with initial incubation time [2]: No variation of enzymatic inhibition
IC50 [3]: > 50 µM
IC50^6/1 (ratio IC50 HDAC6/IC50 HDAC1) [4]: > 417
IC50 [4]: 0.12 µM
times less potent than the corresponding free thiol analogue against rHDAC1 ([4]; thioester vs free thiol): 8 times
SMILES: CO/N=C(\Cc1ccc(OC)c(Br)c1)C(=O)NCCSC(C)=O [Compound 7, (E)-(S)-2-(3-(3-Bromo-4-methoxyphenyl)-2-(methoxyimino)propanamido)ethyl ethanethioate]
IC50 [1]: 44 µM
IC50 [5]: 12 µM
IC50 [6]: 17 µM

variation of rHDAC1 inhibition with initial incubation time [2]: No variation of enzymatic inhibition
IC50 [3]: 9.5 µM
IC50^6/1 (ratio IC50 HDAC6/IC50 HDAC1) [4]: > 20
IC50 [4]: 0.48 µM
SMILES: COc1ccc(CC(=O)C(=O)NCCSC(C)=O)cc1Br [Compound 9, (S)-2-(3-(3-Bromo-4-methoxyphenyl)-2-oxopropanamido)ethyl ethanethioate]
activity against A549 cells at the highest concentration tested ([1]; 50 μM): inactive
IC50 [1]: > 50 µM
IC50 [5]: 21 µM
activity against WI38 cells at the highest concentration tested ([6]; 50 μM): inactive
IC50 [6]: > 50 µM

IC50 [3]: 2.8 µM
IC50^6/1 (ratio IC50 HDAC6/IC50 HDAC1) [4]: 62
IC50 [4]: 0.045 µM
SMILES: O=C(NCCSSCCNC(=O)/C(Cc1ccc(O)c(Br)c1)=N/O)/C(Cc1ccc(O)c(Br)c1)=N/O [PSA (3), psammaplin A]
IC50 [1]: 7.5 µM
IC50 [5]: 1.3 µM
IC50 [6]: 3.4 µM

IC50 [3]: 0.36 µM
IC50^6/1 (ratio IC50 HDAC6/IC50 HDAC1) [4]: 360
IC50 [4]: 0.001 µM
SMILES: O=C(NCCS)/C(Cc1ccc(O)c(Br)c1)=N/O [PSA-SH (4)]
IC50 [1]: 2.5 µM
IC50 [5]: 2.4 µM
IC50 [6]: 3.4 µM

SMILES: O=C(CCCCCCC(=O)Nc1ccccc1)NO [SAHA (1), suberoylanilide hydroxamic acid]
IC50^6/1 (ratio IC50 HDAC6/IC50 HDAC1) [4]: 7

SMILES: CON=C(Cc1ccc(OC)c(Br)c1)C(=O)NCCSSCCNC(=O)C(Cc1ccc(OC)c(Br)c1)=NOC [disulfide of 7]
IC50 [7, 12]: > 50 µM
IC50 [8, 12]: 13 µM
IC50 [9, 12]: 46 µM
IC50 [10, 12]: 0.22 µM
IC50^6/1 (ratio IC50 HDAC6/IC50 HDAC1) [10, 12]: > 230

SMILES: COc1ccc(CC(=NO)C(=O)NCCSSCCNC(=O)C(Cc2ccc(OC)c(Br)c2)=NO)cc1Br [disulfide of 8]
IC50 [11, 12]: 2.2 µM
IC50 [7, 12]: 2 µM
IC50 [8, 12]: 0.63 µM
IC50 [9, 12]: 4.1 µM
IC50 [10, 12]: 0.043 µM
IC50^6/1 (ratio IC50 HDAC6/IC50 HDAC1) [10, 12]: 46

SMILES: COc1ccc(CC(=O)C(=O)NCCSSCCNC(=O)C(=O)Cc2ccc(OC)c(Br)c2)cc1Br [disulfide of 9]
IC50 [11, 12]: 4.1 µM
IC50 [7, 12]: 8 µM
IC50 [8, 12]: 3.9 µM
IC50 [9, 12]: 10 µM
IC50 [10, 12]: 9 µM
IC50^6/1 (ratio IC50 HDAC6/IC50 HDAC1) [10, 12]: 0.9

SMILES: CON=C(Cc1ccc(OC)c(Br)c1)C(=O)NCCS [thiol of 7]
IC50 [11, 13]: 10 µM
IC50 [7, 13]: 2.7 µM
IC50 [8, 13]: 12 µM
IC50 [9, 13]: 5.1 µM
IC50 [10, 13]: 0.015 µM
IC50^6/1 (ratio IC50 HDAC6/IC50 HDAC1) [10, 13]: 180

SMILES: COc1ccc(CC(=NO)C(=O)NCCS)cc1Br [thiol of 8]
IC50 [11, 13]: 1.1 µM
IC50 [7, 13]: 3.2 µM
IC50 [8, 13]: 0.61 µM
IC50 [9, 13]: 0.16 µM
IC50 [10, 13]: 0.002 µM
IC50^6/1 (ratio IC50 HDAC6/IC50 HDAC1) [10, 13]: 1772

SMILES: COc1ccc(CC(=O)C(=O)NCCS)cc1Br [thiol of 9]
IC50 [11, 13]: 14 µM
IC50 [7, 13]: 0.25 µM
IC50 [8, 13]: 3.4 µM
IC50 [9, 13]: 11 µM
IC50 [10, 13]: 1.1 µM
IC50^6/1 (ratio IC50 HDAC6/IC50 HDAC1) [10, 13]: 0.22
